The results in this text go back to patent publication US20060019565A1, “Method for delivering biologically active substnces” (priority 2002, published 2006).

Data set [1] is described as follows: Release of the hydroxyl compound by hydrolysis from a treated substrate (PAN fabric, cotton, paper). Type of data set: physicochemical. The note with it: for release of the active hydroxyl compound upon hydrolysis: concentrated aqueous formulation sprayed on cellulosic substrate (paper, cotton), air-dried. How it is done:
After the treatment with the aqueous solution of the ester compound a slow release of the biologically active hydroxyl compound on the substrate starts through hydrolysis. The velocity of this process can easily be controlled through pH and/or temperature variations.
II.1 A sample of 15 g polyacrylonitrile (PAN) fabric (Dralon 5-4301), pretreated with a commercial wetting agent (TINOVETIN® JU, supplied by Ciba Specialty Chemicals) at 60° C. during 10 min and rinsed with cold water, is fixed on a support material and in an exhaust dyeing machine of type Ahiba treated with the following composition: • 7.5 ml aqueous Na2SO4 solution (100 g/l) • 2.25 ml aqueous sodium acetate solution (100 g/A) • 2.25 ml 80% acetic acid • 233.5 ml water • 3.0 ml cationic retarder (TINEGAL® MR, Ciba Specialty Chemicals) (100 g/l) • 1.5 ml aqueous solution of compound of formula (101) (100 g/l)
The temperature is kept at 98° C. for 20 min; the pH of the bath after cooling to room temperature is 4.7. The sample of PAN fabric is rinsed with cold water and subsequently dried in the air. The resulting PAN fabric contains the latent menthol.
(§1) II.5 A padding bath is prepared containing 20 g/l of compound (101) and is applied at 20-25° C. with a pick-up rate of 70-80% on cotton. After drying (65 to 15 s at 70-130° C.), the resulting fabric contains the latent menthol.
II.8 A concentrated aqueous formulation of compound (101) is sprayed on a cellulosic substrate (e.g. paper, cotton).

A short description of data set [2]: Antimicrobial protection of treated cotton fibre. As to the method: as §1
II.6 The same treatment is made on cotton using compound (102) in place of (101).
II.7 A cotton fabric is similarly treated with an aqueous formulation of compounds of formula (101) and (102).

[3] abbreviates: cotton treated with aqueous formulation of (101) and (102) together.
The mark [4] stands for this setting: cotton, padding bath 20 g/l, 20-25° C., pick-up 70-80%.

The structures appear in SMILES notation.

For the molecule `CC1CCC(C(C)C)C(OC(=O)C[N+](C)(C)CCN(C)C)C1.[Cl-]` (stereo not drawn) [compound 101], the “regeneration of menthol from treated fabric” value in data set [1] (PAN fabric, exhaust treatment 98° C. for 20 min, bath pH 4.7-5.2, velocity of release controlled by pH) was “gradually regenerated”. Besides, the “release of the active hydroxyl compound upon hydrolysis” value in data set [1] is listed as “releases menthol upon hydrolysis”. For the same molecule, the “release of the active hydroxyl compound from treated fabric” value in data set [1] (setting [3]) is “slowly released”; in data set [1] (setting [4]), “gradually regenerated”.

For `CN(C)CC[N+](C)(C)CC(=O)Oc1cc(Cl)ccc1Oc1ccc(Cl)cc1Cl.[Cl-]` [compound 102], the antimicrobial protection entry in data set [2] (cotton padded with compound (102) alone) and in data set [2] (setting [3]) was “good antimicrobial protection over time” in each case. The “release of the active hydroxyl compound upon hydrolysis” value in data set [1] is “releases triclosan upon hydrolysis”. For the same molecule, the “release of the active hydroxyl compound from treated fabric” value in data set [1] (setting [3]) and in data set [1] (setting [4]) was “slowly released” in each case.
